Results: PMC9229263, “Pyrazolo[4,3-e]tetrazolo[1,5-b][1,2,4]triazine Sulfonamides as Novel Potential Anticancer Agents: Cytotoxic and Genotoxic Activities In Vitro” (Molecules, 2022)
Read-outs that look alike come from different tables or passages of the source.

What was measured:
[1] = system: HCT 116; details: cited from earlier work
[2] = system: PC-3; details: cited from earlier work
[3] = system: HeLa; test: MTT assay, HeLa; assay type: cell-based; details: Homo sapiens, 72 h, 95% confidence intervals in parentheses
From the text: (§1) In order to characterize the effect of tested compounds on cell viability, the MTT test was used. MTT microplate assay enables evaluation of cell viability via measuring cell metabolic activity represented as an ability to incorporate and reduce yellow tetrazolium salt to the violet-blue formazan compounds via the activity of mitochondrial succinate dehydrogenase enzyme. The number of metabolically active cells positively correlates with the amount of reduced tetrazolium salt. The absorbance of formazan solution obtained after solubilizing formazan crystals in an organic solvent, e.g., DMSO, can be measured spectrophotometrically at 570 nm.
(§2) The suspension of 8–10 × 10^3 (adherent cells) and 8 × 10^4 (PBMCs) cells in 200 µL and 100 µL medium, respectively, was transferred to each well of 96-well microplate. Plates were incubated for 24 h in controlled conditions (5% CO2; 37 °C) to ensure cell growth. Subsequently, the medium was replaced, and the cells were exposed to tested compounds in a wide range of concentrations (0.1–6 µM). Before investigated compounds were diluted in a culture medium, they had been diluted in DMSO in the final concentration of <0.5% v/v, which were not toxic to the cells. The experimental design included blanks (wells without cells) as well as non-treated control cells. Following the 72 h incubation period, a volume of 20 µL of fresh tetrazolium salt solution (5 mg/mL in PBS) was added per well. In the case of adherent cancer cells, after 3 h of incubation (conditions as previously), the solutions were replaced by 100 µL of DMSO to dissolve formazan complexes. In contrast, the solutions in plates containing PBMCs were not removed and a 100 µL mixture of 50% DMF and 20% SDS was added to each well for the next 24 h. Absorbance was measured via spectrophotometer (microplate reader Power Wave XS BioTek Instruments, Inc., Winooski, VT, USA) at 570 nm. […]

[4] = system: HCT 116; test: MTT assay, HCT 116; assay type: cell-based; details: Homo sapiens; HCT 116, MTT, 72 h; 95% confidence intervals in parentheses
From the text: as §1, §2

[5] = system: PC-3; test: MTT assay, PC-3; assay type: cell-based; details: Homo sapiens; PC-3, MTT, 72 h; 95% confidence intervals in parentheses
From the text: as §1, §2

[6] = system: BxPC-3; test: MTT assay, BxPC-3; assay type: cell-based; details: Homo sapiens; BxPC-3, MTT, 72 h; 95% confidence intervals in parentheses
From the text: as §1, §2

[7] = system: Hs27; test: MTT assay, Hs27 fibroblasts (normal); assay type: cell-based; details: Homo sapiens, 72 h, 95% confidence intervals in parentheses
From the text: as §1, §2

[8] = system: PBMCs; test: MTT assay, PBMCs (normal); assay type: cell-based; details: Homo sapiens, PBMC, PBMCs normal cells, 72 h, 95% confidence intervals in parentheses
From the text: Human PBMCs were isolated from the leucocyte buffy coat obtained from the blood of healthy and nonsmoking volunteers (aged 18–65). Leukocyte buffy coats were collected from Blood Bank in Lodz, Poland. The use of the leukocyte buffy coat in the investigation of the effect of novel tricyclic pyrazolo[4,3-e][1,2,4]triazine derivatives on human PBMCs was approved by the Bioethics Committee for Scientific Investigation, University of Lodz (agreement no. 8/KBBN-UŁ/I//2019). Isolation of PBMCs was performed by density gradient of Lymphosep (25 min, 1400 rpm, RT). PBMCs were cultured in RPMI-1640 medium, supplemented with 1% (v/v) penicillin–streptomycin solution, 1.5% PHA and 10% (v/v) FBS.
as §1
(§3) The suspension of 8–10 × 10^3 (adherent cells) and 8 × 10^4 (PBMCs) cells in 200 µL and 100 µL medium, respectively, was transferred to each well of 96-well microplate. Plates were incubated for 24 h in controlled conditions (5% CO2; 37 °C) to ensure cell growth. Subsequently, the medium was replaced, and the cells were exposed to tested compounds in a wide range of concentrations (0.1–6 µM). Before investigated compounds were diluted in a culture medium, they had been diluted in DMSO in the final concentration of <0.5% v/v, which were not toxic to the cells. […] Absorbance was measured via spectrophotometer (microplate reader Power Wave XS BioTek Instruments, Inc., Winooski, VT, USA) at 570 nm. […]

[9] = system: HCT 116; test: Comet assay, alkaline version (pH > 13), HCT 116; assay type: cell-based, human; details: HCT 116, 24 h; for Alkaline Version, median percentage of DNA in comet tail: compound at 2 × IC50, interquartile range in parentheses
Protocol: (§4) The alkaline version (pH > 13), as well as the neutral version (pH 9.0) of the comet assay, was performed on cancer cell lines according to the procedures described by Singh et al. with modifications. 12-well plates were seeded at a density of 1.2–1.5 × 10^5 cells per well. […] In addition, negative and positive controls (cells treated only with DMSO at <0.5% and with bleomycin at 20 µM, respectively) were included.
(§5) Following a 24 h incubation (5% CO2; 37 °C), the cells were trypsinized and transferred to Eppendorf tubes and centrifuged (10 min, 1400 rpm, 4 °C). The obtained pellet was resuspended in 100 µL of fresh PBS, mixed with 0.75% LMP agarose dissolved in PBS, and embedded onto microscope slides, previously precoated with 0.5% NMP agarose. The Trypan Blue dye exclusion test was used to determine the number of viable cells present in a cell suspension. […] The slides after agarose solidification were placed in a fresh, cold lysis buffer (pH 10, 1% Triton X-100, 2.5 M NaCl, 100 mM EDTA, 10 mM Tris) for 1 h (4 °C, in dark), which subsequently was replaced by electrophoretic solution (1 mM EDTA, 300 mM NaOH, pH > 13) for another 40 min. Afterward, electrophoresis was performed (25 min, 0.73 V/cm, 300 mA, 4 °C, in dark). Subsequently, the slides were neutralized with 0.4 M Tris, pH 7.5 (20 min, 4 °C, in dark) and washed 3× in distilled water. Eventually, slides were drained, stained with DAPI (1 μg/mL) for at least 1 h (4 °C), and analyzed with fluorescence microscope (Olympus, Tokyo, Japan).
(§6) A total number of 50 randomly selected images were analyzed in the commercially available software CaspLab. Two parallel experiments with aliquots of the same sample of cells were performed for a total of 100 cells. From the available parameters, the percentage of DNA in comet tail was selected as the most appropriate as being negatively associated with the level of DNA cross-links, as well as positively correlated with alkali-labile sites and the amount of DNA single-strand breaks (SSBs) and double-strand breaks (DSBs) (alkaline version of the comet assay). […]

[10] = system: PC-3; test: Comet assay, alkaline version (pH > 13), PC-3; assay type: cell-based, human; details: PC-3, 24 h, range over 0.5, 1 and 2 × IC50
Protocol: as §4, §5, §6

[11] = system: HCT 116; test: Immunocytochemical detection of γ-H2AX; assay type: cell-based, human; details: HCT 116, 24 h, highest concentration used (2 × IC50)
Protocol: Immunocytochemical detection of the phosphorylated form of the histone protein component H2AX (γ-H2AX) is a well-known approach to estimate DNA DSB levels in both in vitro [47, 53, 66] and in vivo [67, 68] studies. HCT 116 cells were grown on coverslips in 12-well plates at a density of 1.2 × 10^5 per well for 24 h (5% CO2; 37 °C). Subsequently, the cells were exposed to investigated compounds in two different concentrations (IC50 and 2 × IC50 values with respect to MTT results), by replacing the medium with an appropriate compound concentration. Negative control (cells treated only with DMSO at <0.5%) was also included.
The cells were fixed with 4% paraformaldehyde (10 min), washed twice with PBS, and permeabilized with 0.5% (v/v) Triton X-100/PBS solution (10 min). Afterward, the cells were incubated with a blocking solution containing 1.5% goat serum, and 0.1% Triton in PBS for 10 min and incubated with the primary antibody, anti-gamma-H2AX (phospho-Ser139) (Abcam, Cambridge, UK; 1:100) for 1 h. […]
The slides were examined using a fluorescence microscope (Olympus) at 40× magnification. […] A total number of 150 randomly selected cells from digital images per sample were measured. The data were exported and analyzed in GraphPad Prism 8.0 software system (GraphPad Prism Software Inc., San Diego, CA, USA).

[12] = system: HeLa; parameters: method as in doi:10.26650/IstanbulJPharm.2020.0039, PMID 34200051; details: cited from earlier work
[13] = system: BxPC-3; parameters: method as in PMID 20021699, PMID 24172061; details: cited from earlier work
[14] = system: HT-29 and DLD-1; details: HT-29 and DLD-1, range; cited from earlier work
[15] = system: HeLa, HCT 116, PC-3, BxPC-3, Hs27, PBMCs; test: MTT assay, summary over all tested cells; assay type: cell-based; details: Homo sapiens; HCT 116, HeLa, PC-3 and BxPC-3, MTT; read-out: IC50 range in cancer cell lines
From the text: as §1, §3

[16] = system: HT-29 and DLD-1 cancer cells; parameters: method as in PMID 26089833; details: mice challenged with HT-29 and DLD-1 cancer cells, two weeks of treatment; cited from earlier work
[17] = system: tumor development; parameters: method as in PMID 31371419; details: zebrafish embryo xenograft model; cited from earlier work

Row | IC50 [3] [µM] | IC50 [4] [µM] | IC50 [5] [µM] | IC50 [6] [µM] | Structure (SMILES) | IC50 [1] [µM] | IC50 [2] [µM] | IC50 [7] [µM] | IC50 [8] [µM] | % of DNA in comet tail, alkaline comet assay [10] | IC50 [14] [µM] | further results
1 | – | – | – | – | CCc1c2c(nc3ccc(OC(=O)N4CCC(N5CCCCC5)CC4)cc13)-c1cc3c(c(=O)n1C2)COC(=O)[C@]3(O)CC [irinotecan] | 2.6 | 2.1 | – | – | – | – | –
2 | 0.59 | 0.44 | 0.22 | 0.17 | Cc1nn(-c2ccc(S(=O)(=O)N[C@@H](C)CO)cc2)c2nn3nnnc3nc12 [MM130] | – | – | 0.81 | 0.77 | 7.4–21.8% | – | Alkaline Version, median percentage of DNA in comet tail [9]: 25.6%; median of the number of γ-H2AX foci per nucleus [11]: 12 foci per nucleus; melting point: 197 to 202 °C
3 | – | – | – | – | N.N.[Cl][Pt][Cl] [cisplatin] | 9 | 9 | – | – | – | – | IC50 [12]: 12.3 µM
4 | – | – | – | – | O=C1[O][Pt]2([NH][C@@H]3CCCC[C@H]3[NH]2)[O]C1=O [oxaliplatin] | 72 | 100 | – | – | – | – | –
5 | – | – | – | – | O=c1[nH]cc(F)c(=O)[nH]1 [5-fluorouracil] | 3.2 | – | – | – | – | – | IC50 [13]: 96.1 µM
6 | – | – | – | – | Cc1nn(-c2ccc(S(=O)(=O)N3CCN(C)CC3)cc2)c2nn3nnnc3nc12 [MM137, reference compound] | – | – | – | – | – | 0.16 to 1.54 | –
7 | 0.41 | 0.39 | 0.17 | 0.13 | Cc1nn(-c2ccc(S(=O)(=O)N[C@H](C)CO)cc2)c2nn3nnnc3nc12 [MM131] | – | – | 0.62 | 0.62 | 19.5–40.3% | 3.1 to 3.9 | Alkaline Version, median percentage of DNA in comet tail [9]: 38.8%; % of DNA in comet tail, alkaline comet assay ([9]; range over 0.5, 1 and 2 × IC50): 8–38.8%; median of the number of γ-H2AX foci per nucleus [11]: 15 foci per nucleus; IC50 [15]: 0.13 to 0.9 µM
8 | 0.9 | 0.6 | 0.36 | 0.26 | COC(=O)C1CC(O)CN1S(=O)(=O)c1ccc(-n2nc(C)c3nc4nnnn4nc32)cc1 (centres unmarked) [MM129] | – | – | 1.15 | 1.11 | 7.4–21.8% | 3.1 to 3.9 | IC50 [15]: 0.13 to 0.9 µM; tumor mass and volume [16]: significant reduction in tumor mass and volume; tumor development [17]: inhibition of tumor development
9 | – | – | – | – | Cc1nn(-c2ccc(S(=O)(=O)NC(CO)CC(C)C)cc2)c2nn3nnnc3nc12 (centres unmarked) [MM124, reference compound] | – | – | – | – | – | 0.16 to 1.54 | –
